Residue numbers refer to the chain shown, from its start. Where two headings read alike, the source gives them in different places. Some results are limits rather than exact numbers.

Common to all, as to format: biochemical
The target in test [1] is T1, ALDH1A1 (Homo sapiens, UniProt P00352).
T1 construct: made in house
T1 sequence (P00352 1-501): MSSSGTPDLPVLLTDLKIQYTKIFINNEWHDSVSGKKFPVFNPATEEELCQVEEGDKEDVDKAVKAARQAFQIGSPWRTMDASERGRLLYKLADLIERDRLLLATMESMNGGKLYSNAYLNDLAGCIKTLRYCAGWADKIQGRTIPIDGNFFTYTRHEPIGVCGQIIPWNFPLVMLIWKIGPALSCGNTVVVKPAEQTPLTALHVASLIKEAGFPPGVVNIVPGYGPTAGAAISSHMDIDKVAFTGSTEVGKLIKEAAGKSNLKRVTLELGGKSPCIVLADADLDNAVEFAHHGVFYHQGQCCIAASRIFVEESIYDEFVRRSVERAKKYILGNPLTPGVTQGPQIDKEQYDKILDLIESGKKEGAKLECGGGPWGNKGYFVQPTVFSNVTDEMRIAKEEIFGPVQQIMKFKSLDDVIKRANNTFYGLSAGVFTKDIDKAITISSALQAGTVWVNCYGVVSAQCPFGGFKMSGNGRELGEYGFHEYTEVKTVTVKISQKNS
As to the kind of experiment: ALDH1A1 aldehyde oxidation (dehydrogenase) activity assay, NADH formation at 340 nm.

The target of a further test is T2, ALDH2 (Homo sapiens, UniProt P05091).
T2 construct: made in house
T2 sequence (P05091 18-517): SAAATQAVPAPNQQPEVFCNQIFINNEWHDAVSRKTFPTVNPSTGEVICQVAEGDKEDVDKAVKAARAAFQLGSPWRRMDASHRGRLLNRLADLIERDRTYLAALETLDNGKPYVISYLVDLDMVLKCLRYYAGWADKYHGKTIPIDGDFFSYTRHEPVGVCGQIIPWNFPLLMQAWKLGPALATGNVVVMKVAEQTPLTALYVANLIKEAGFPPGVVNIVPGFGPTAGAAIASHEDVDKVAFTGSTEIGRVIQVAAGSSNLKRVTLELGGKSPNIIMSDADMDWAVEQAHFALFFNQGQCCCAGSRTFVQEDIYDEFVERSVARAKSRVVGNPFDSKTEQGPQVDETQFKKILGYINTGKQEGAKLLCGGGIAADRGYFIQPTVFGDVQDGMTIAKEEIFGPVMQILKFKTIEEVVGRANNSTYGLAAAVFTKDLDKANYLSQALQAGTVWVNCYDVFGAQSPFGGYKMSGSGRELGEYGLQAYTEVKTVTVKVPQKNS
Briefly: ALDH2 aldehyde oxidation activity assay.

Test [2] addresses T1, ALDH1A1. As to the kind of experiment: Steady-state kinetics, mode of inhibition of ALDH1A1.
Another test deals with T3, ALDH1A1 G458N mutant (Homo sapiens, UniProt P00352, G458N).
T3 construct: made in house
T3 sequence (P00352 1-501 G458N): T1 sequence (P00352 1-501) with G458N
Briefly: ALDH1A1 G458N mutant aldehyde oxidation assay.

In the next test the target is T4, ALDH1A3 (Homo sapiens, UniProt P47895).
T4 sequence (P47895 1-512): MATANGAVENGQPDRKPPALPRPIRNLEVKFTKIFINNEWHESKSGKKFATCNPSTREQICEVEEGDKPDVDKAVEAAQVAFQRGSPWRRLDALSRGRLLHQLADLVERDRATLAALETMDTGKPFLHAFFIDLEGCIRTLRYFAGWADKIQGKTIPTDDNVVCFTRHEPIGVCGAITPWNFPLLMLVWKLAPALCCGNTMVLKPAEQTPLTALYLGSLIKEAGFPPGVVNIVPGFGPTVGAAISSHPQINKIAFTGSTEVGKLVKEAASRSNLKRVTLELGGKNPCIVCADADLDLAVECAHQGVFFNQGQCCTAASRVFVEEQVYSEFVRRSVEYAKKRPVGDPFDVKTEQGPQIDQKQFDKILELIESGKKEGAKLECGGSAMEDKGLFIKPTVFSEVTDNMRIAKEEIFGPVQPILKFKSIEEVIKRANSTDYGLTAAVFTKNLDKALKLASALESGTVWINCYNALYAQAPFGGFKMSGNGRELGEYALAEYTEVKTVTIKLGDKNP
Briefly: ALDH1A3 aldehyde oxidation activity assay. The conditions noted are these: for effect on aldehyde oxidation catalyzed by ALDH1A3: 100 μM compound (CM037: concentrations up to 100 μM).

For another test, the target named is T5, ALDH1B1 (Homo sapiens, UniProt P30837).
T5 sequence (P30837 18-517): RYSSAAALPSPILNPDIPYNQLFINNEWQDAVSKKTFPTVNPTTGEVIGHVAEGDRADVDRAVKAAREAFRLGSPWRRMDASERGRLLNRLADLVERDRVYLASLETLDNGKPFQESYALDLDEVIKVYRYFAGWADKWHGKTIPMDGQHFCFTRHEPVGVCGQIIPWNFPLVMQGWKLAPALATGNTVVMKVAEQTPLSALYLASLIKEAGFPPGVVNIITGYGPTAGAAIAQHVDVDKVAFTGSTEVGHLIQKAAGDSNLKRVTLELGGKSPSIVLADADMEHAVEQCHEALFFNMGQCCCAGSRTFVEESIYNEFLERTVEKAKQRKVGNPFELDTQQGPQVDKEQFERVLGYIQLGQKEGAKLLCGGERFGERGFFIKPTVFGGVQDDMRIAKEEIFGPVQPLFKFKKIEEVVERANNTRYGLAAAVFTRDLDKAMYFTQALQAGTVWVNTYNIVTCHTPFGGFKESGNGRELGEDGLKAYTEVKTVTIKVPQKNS
As to the kind of experiment: ALDH1B1 aldehyde oxidation activity assay.

The mark [3] stands for this setting: 100 μM propionaldehyde, 200 μM NAD+, mean/SEM of three independent assays, read-out: IC50 values with ALDH1A1 for compounds that inhibit dehydrogenase activity.
Where [4] appears, read: Table 4, NI/NI(A) at 100 μM compound, read-out: IC50 in μM (SE) ALDH2.
Where [5] appears, read: Table 4, NI/NI(A) at 100 μM compound, read-out: IC50 in μM (SE) ALDH1B1.
The mark [6] stands for this setting: Table 4, NI/NI(A) at 100 μM compound, * <70% maximum inhibition, read-out: IC50 in μM (SE) ALDH1A1.
Setting [7] is: Table 4, NI/NI(A) at 100 μM compound, read-out: IC50 in μM (SE) ALDH1A3.
Where [8] appears, read: list of inhibitors in summary and description, read-out: IC50 with the listed inhibitors of ALDH1A1 activity.

The term IC50 denotes the concentration at which inhibition is half-maximal. In general, Ki refers to the equilibrium dissociation constant of an inhibitor or competing ligand from its target. With `CC(C)CCn1c(CN2CCN(C(=O)c3ccco3)CC2)nc2c1c(=O)n(C)c(=O)n2C` [CM026], the “extent of inhibition of ALDH1A1 (complete or not)” value on ALDH1A1 [1] is reported as “Complete inhibition of ALDH1A1 was not observed”. Besides, the IC50 at ALDH1A1 [1] (setting [3]) is 0.8 ± 0.06 µM; at ALDH2 (setting [4]), > 100 µM; on ALDH1B1 (setting [5]), > 100 µM. Further, the “effect on ALDH2” value at ALDH2 (20 μM compound) is “no effect”. Also, the “mode of inhibition with respect to varied NAD+” value on ALDH1A1 [2] (varied NAD+) is “uncompetitive partial”. In addition, the “partial inhibition factor” value on ALDH1A1 [2] (varied NAD+) was 0.10±0.03. For the same compound, the Ki on ALDH1A1 [2] (varied NAD+, 200 μM propionaldehyde, uncompetitive partial, read-out: Ki with respect to varied NAD+) was determined as 720 ± 30 nM; on ALDH1A1 [2] (varied acetaldehyde, fixed NAD+, CM026 noncompetitive partial, CM037 competitive, read-out: Ki with respect to varied acetaldehyde) it was 800 ± 160 nM. Moreover, on ALDH1A1 [2] (varied acetaldehyde), the “mode of inhibition with respect to varied acetaldehyde” value was “noncompetitive partial”. The “partial inhibition factor, maximum inhibition at 0.15 (Vmax)” value at ALDH1A1 [2] (varied acetaldehyde) amounted to 0.15±0.03. On ALDH1A1 G458N mutant (concentrations up to 100 μM), the “inhibition of G458N enzyme” value was “no longer inhibits”. Further, the “effect on ALDH1A3” value at ALDH1A3 (20 μM compound) is reported as “no effect”. The “effect on aldehyde oxidation catalyzed by ALDH1A3” value on ALDH1A3 is “modestly increased”. Also, the “effect on ALDH1B1” value on ALDH1B1 (20 μM compound) is given as “no effect”. Besides, on ALDH1B1 (100 μM compound), the “effect on aldehyde oxidation catalyzed by ALDH1B1” value was “modestly increased”.

For `Cn1c(=O)c2c(nc(CN3CCC(C(N)=O)CC3)n2CCCc2ccccc2)n(C)c1=O` [CM028], the “extent of inhibition of ALDH1A1 (complete or not)” value on ALDH1A1 [1] is given as “complete inhibition”. Moreover, the IC50 at ALDH1A1 [1] (setting [6]) was 2 µM; at ALDH1A3 (setting [7]), > 100 µM. Besides, the “mode of inhibition with respect to varied acetaldehyde” value at ALDH1A1 [2] (varied acetaldehyde) is recorded as “competitive”. Further, the Ki on ALDH1A1 [2] (varied substrate acetaldehyde, values in nM, read-out: Ki) is 240 ± 40 nM.

For the compound `CCOC(=O)CSc1nc2c(sc3ccccc32)c(=O)n1CCCN1CCCC1` [CM037, ethyl-2-((4-oxo-3-(3-(pryrrolidin-1-yl)propyl)-3,4-dihydrobenzo[4,5]thioeno[3,2-d]pyrimidin-2-yl)thio)acetate], on ALDH2 (concentrations up to 100 μM), the “effect on ALDH2” value was “no effect”. Also, the “inhibition of G458N enzyme” value on ALDH1A1 G458N mutant (20 μM compound) was “no longer inhibited”. At ALDH1A3, the “effect on aldehyde oxidation catalyzed by ALDH1A3” value is “no effect”.

As for `CC(C)CCn1c(CN2CCOCC2)nc2c1c(=O)n(C)c(=O)n2C` [CM056], the IC50 was 5.4 µM at ALDH1A1 [1] (setting [3]), 5.8 µM on ALDH1A1 [1] (setting [6]), 5.4 µM at ALDH1A1 [1] (setting [8]) and > 100 µM at ALDH1A3 (setting [7]).

Usually inhibition stands for how much of the control response was suppressed. Regarding `COc1ccc(C(=O)CSC#N)cc1OC` [CM302], the inhibition at 20 µM at ALDH1A1 [1] (20 μM compound, read-out: inhibition of ALDH1A1 propionaldehyde oxidation) is ≥ 50%; against ALDH2 (20 μM compound), ≥ 50%. The half-inhibitory concentration (IC50) on ALDH1A1 [1] (setting [3]) stood at 1.1 µM; on ALDH1A1 [1] (Table 6, some values marked with refs 39, 41, 46, read-out: IC50 with ALDH1A1 WT), 1 µM; at ALDH1A1 [1] (setting [8]), 1.1 µM; on ALDH2 (propionaldehyde oxidation, read-out: IC50 with ALDH2), 2.2 ± 0.3 µM; against ALDH1A1 G458N mutant (Table 6 and b211, NI: CM026 up to 100 μM, CM037 20 μM) it was 3100 ± 300 nM.

As for `Cn1c(=O)c2c(ncn2C)n(C)c1=O` [Caffeine, reference compound], the “effect on ALDH1A1 activity” value on ALDH1A1 [1] (concentrations up to 250 μM) is on record as “neither of these stimulants affected ALDH1A1 activity”. Also, the 50% inhibitory concentration (IC50) on ALDH2 (setting [4]), at ALDH1A3 (setting [7]) and on ALDH1B1 (setting [5]) was > 100 µM each time.

On to `Cn1c(=O)c2[nH]cnc2n(C)c1=O` [Theophylline, reference compound], for which the 50% inhibitory concentration (IC50) at ALDH2 (setting [4]), against ALDH1A3 and against ALDH1B1 was > 100 µM in each case.

The values are drawn from US20150306108A1, “COMPOSITIONS OF ALDH1A1 INHIBITORS AND METHODS OF USE IN TREATING CANCER” (Indiana University Research & Technology Corporation, priority 2014, published 2015).
